Reference: PubChem BioAssay AID2060605 (Molecular Pharmacology Branch, DTP, NCI, 2025)
Values joined by “and” are separate entries in the source; they are usually repeats but may differ in a detail not shown here. Equal values may be shown once.

Tested on: 947758-054-R-J2-PDC spheroid growth, percent test/control
Assay: Anticancer human tumor 947758-054-R-J2-PDC patient-derived colon adenocarcinoma cell line growth inhibition [CLK]
Settings: spheroids with HUVEC and MSC; for viability, T/C: stronger effect = lower value
Procedure, shortened: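 Patient-derived tumor cells grown as complex spheroids with HUVEC endothelial cells and mesenchymal stem cells, treated with drug combinations. Concentrations descend in half-log steps from near clinical Cmax, or from 10 microM if Cmax unknown.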
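Note: spheroids exposed to compounds for one week before readout.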
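Throughout, for viability, T/C: 100% = DMSO vehicle control wells.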

## CCN1CCN(Cc2ccc(Nc3ncc(F)c(-c4cc(F)c5nc(C)n(C(C)C)c5c4)n3)nc2)CC1 + CNC(=O)c1ccc(Nc2nc(OC3CCCC3)c3c(-c4ccc5nc(C)oc5c4)c[nH]c3n2)c(OC)c1
Curve of first compound, second compound 0.0316 µM
  IC50: 792 nM
Curve of first compound, second compound 0.1 µM
  IC50: 263 nM
Curve of first compound, second compound 0.316 µM
  IC50: 46 nM
Curve of first compound, second compound 1 µM
  IC50: 6.65 nM
Curve of first compound, second compound 3.16 µM
  IC50: < 3.16 nM
Curve of first compound, second compound 10 µM
  IC50: < 3.16 nM
Second compound 0.0316 µM, first compound 0.00316 µM
  viability, T/C: 96.1%
Second compound 0.0316 µM, first compound 0.01 µM
  viability, T/C: 94.5%
Second compound 0.0316 µM, first compound 0.0316 µM
  viability, T/C: 90.7%
Second compound 0.0316 µM, first compound 0.1 µM
  viability, T/C: 73%
Second compound 0.0316 µM, first compound 0.316 µM
  viability, T/C: 61.5%
Second compound 0.0316 µM, first compound 1 µM
  viability, T/C: 46.9%
Second compound 0.1 µM, first compound 0.00316 µM
  viability, T/C: 102%
Second compound 0.1 µM, first compound 0.01 µM
  viability, T/C: 73.2%
Second compound 0.1 µM, first compound 0.0316 µM
  viability, T/C: 61.4%
Second compound 0.1 µM, first compound 0.1 µM
  viability, T/C: 65.8%
Second compound 0.1 µM, first compound 0.316 µM
  viability, T/C: 57.4%
Second compound 0.1 µM, first compound 1 µM
  viability, T/C: 32.8%
Second compound 0.316 µM, first compound 0.00316 µM
  viability, T/C: 101%
Second compound 0.316 µM, first compound 0.01 µM
  viability, T/C: 71.3%
Second compound 0.316 µM, first compound 0.0316 µM
  viability, T/C: 39.5%
Second compound 0.316 µM, first compound 0.1 µM
  viability, T/C: 60.1%
Second compound 0.316 µM, first compound 0.316 µM
  viability, T/C: 38.9%
Second compound 0.316 µM, first compound 1 µM
  viability, T/C: 22.3%
Second compound 1 µM, first compound 0.00316 µM
  viability, T/C: 59.2%
Second compound 1 µM, first compound 0.01 µM
  viability, T/C: 46.8%
Second compound 1 µM, first compound 0.0316 µM
  viability, T/C: 31.9%
Second compound 1 µM, first compound 0.1 µM
  viability, T/C: 31%
Second compound 1 µM, first compound 0.316 µM
  viability, T/C: 42.4%
Second compound 1 µM, first compound 1 µM
  viability, T/C: 19.8%
Second compound 3.16 µM, first compound 0.00316 µM
  viability, T/C: 52.2%
Second compound 3.16 µM, first compound 0.01 µM
  viability, T/C: 32.5%
Second compound 3.16 µM, first compound 0.0316 µM
  viability, T/C: 39.8%
Second compound 3.16 µM, first compound 0.1 µM
  viability, T/C: 34%
Second compound 3.16 µM, first compound 0.316 µM
  viability, T/C: 33.7%
Second compound 3.16 µM, first compound 1 µM
  viability, T/C: 25.1%
Second compound 10 µM, first compound 0.00316 µM
  viability, T/C: 40%
Second compound 10 µM, first compound 0.01 µM
  viability, T/C: 41.2%
Second compound 10 µM, first compound 0.0316 µM
  viability, T/C: 35.6%
Second compound 10 µM, first compound 0.1 µM
  viability, T/C: 31.6%
Second compound 10 µM, first compound 0.316 µM
  viability, T/C: 21.1%
Second compound 10 µM, first compound 1 µM
  viability, T/C: 21.1%

## COc1c(OCCCN2CCOCC2)ccc2c3n(c(=NC(=O)c4cnc(N)nc4)nc12)CCN3
Compound 0.00316 µM
  viability, T/C: 107% and 111%
Compound 0.01 µM
  viability, T/C: 80.8% and 104%
Compound 0.0316 µM
  viability, T/C: 111% and 105%
Compound 0.1 µM
  viability, T/C: 90.1% and 72%
Compound 0.316 µM
  viability, T/C: 38.9% and 41.3%
Compound 1 µM
  viability, T/C: 23.1% and 22.7%
Curve of compound
  IC50: 246 nM and 224 nM
